Assay results taken from the SangsterLogP compilation.

Experiment: method code SF, from DOI: 10.1016/0223-5234(96)88223-7

Row | Structure (SMILES) | logP
1 | CC(C)(C)c1ccc(-c2nc3ncccc3[nH]2)cc1 | 4.82
2 | Clc1ccc(-c2nc3ncccc3[nH]2)cc1 | 2.95
3 | Cc1ccc(-c2nc3ccc([N+](=O)[O-])cc3[nH]2)c(C)c1 | 4.1
4 | COc1ccc(Cc2nc3ccc([N+](=O)[O-])cc3[nH]2)cc1 | 3.48
5 | Cc1ccc(-c2nc3ncccc3[nH]2)cc1 | 3.02
6 | Nc1ccc(Cc2nc3ccc(Cl)cc3[nH]2)cc1 | 3.2
7 | COc1ccc(-c2nc3ccc(C)cc3[nH]2)c(OC)c1 | 3.78
8 | COc1ccccc1-c1nc2ccccc2[nH]1 | 3.02
9 | CCc1ccc(-c2nc3ncccc3[nH]2)cc1 | 3.42
10 | Fc1ccc(-c2nc3ncccc3[nH]2)cc1 | 2.52
11 | Clc1ccc(Cc2nc3ccc(Cl)cc3[nH]2)cc1 | 5.18
12 | Cc1ccc(Cc2nc3ccc(Cl)cc3[nH]2)cc1 | 5.21
13 | Cc1ccc(-c2nc3ccccc3[nH]2)cc1 | 3.67
14 | Cc1ccccc1-c1nc2ccc([N+](=O)[O-])cc2[nH]1 | 3.42
15 | Clc1ccc2nc(Cc3ccc(Br)cc3)[nH]c2c1 | 5.38
